For orientation: MIC means the smallest concentration in the dilution series that meets the test's criterion for growth inhibition.

Where “and” joins values, the source holds several entries; their conditions need not be identical. Identical values can stand only once. Entries after “also recorded” stand apart in the source; their conditions may differ.

The values below come from patent US5879683A, “Antibacterial agent containing tea extract or active fraction thereof and β-lactam antibiotic” (priority 1994, dated 1999).

Format in all cases: cell-based, Staphylococcus aureus
The test system of one assay is S. aureus USA#18. Put plainly: Activity II bioassay (anti-PBP2' action), agar well diffusion with methicillin 10 μg/ml. The note with it: for activity II: pure compound at 1 mg/ml. An excerpt: (§1) Activities I (inhibitory/killing actions against bacteria), II (anti-PBP2' action) and III (action against β-lactamase) were quantitated by bioassay, using large plates (14 cm diameter circular, or 25×25 cm square) containing IsoSensitest agar (Unipath CM 471) to a depth of about 4 mm. surface-seeded with S. aureus. Assay strains and additions to agar varied according to the activity being assayed (Table 4).
(§2) 6 mm wells were cut into the agar and filled with appropriate dilutions (in duplicate) of solutions of the material to be assayed. Following overnight incubation, diameters of inhibition zones were measured, and plots made of (log concentration) vs zone diameter. MNIC was calculated by extrapolating the regression line to zone diameter=6 mm; it was expressed ether as a concentration (μg/ml) or an activity (reciprocal of concentration in mg/ml).
(In general: Agar diffusion results depend on both activity and mobility in agar.)

Another assay deals with S. aureus Oxford. Put plainly: Activity I bioassay (inhibitory/killing action), agar well diffusion. The note with it: pure compound at 1 mg/ml.
From the text: as §1, §2

The next assay has as its system MSSA. Description: MIC of benzylpenicillin in presence and absence of tea extract, MSSA (activity III). Here is the method: (§3) Strains were grown overnight at 37° C. in IsoSensitest™ broth (ISB, Unipath CM 473), and 1 μl amounts (c. 10^6 colony forming units (cfu) were inoculated on to six series of plates of IsoSensitest™ agar containing doubling dilutions of methicillin (1024- 1 μg/ml) alone and in the presence of tea extract in various sub-inhibitory concentrations, viz final dilutions of 1/40, 1/70, 1/100, 1/200 and 1/300.
(§4) Plates were incubated at 30° for 48 h. The minimum inhibitory concentration (MIC) of antibiotic was calculated for each sample, as a measure of activity II.
The 40 strains tested in Examples 1 and 2 above, together with 9 strains of methicillin-sensitive Staph. aureus (MSSA) were tested for their resistance to benzylpenicillin in the presence or absence of tea extract, with a view to measuring activity III. The procedures used were those described in Example 1, except that benzylpenicillin replaced methicillin. Both MSSA and MRSA have natural resistance to benzylpenicillin through the production of β-lactamase.

The subject of a further assay is low level MRSA. Description: MIC of methicillin alone and in presence of tea extract, low level MRSA (activity II). The note with it: strain no. is first number of line. Here is the method:
as §3, §4
A further 20 strains of low level MRSA were tested for activity II according to the procedures described in Example 1.

Assay [1] concerns high level MRSA (20 strains of MRSA). Put plainly: MIC of methicillin alone and in presence of tea extract, agar dilution, high level MRSA (activity II). The note with it: strain no. is first number of line. As for the experimental part:
A 2% extract of crushed leaf Japanese "Sencha" tea was made in boiling water, and filtered through a Millipore filter. This extract contains about 14.7 mg/ml of tea.
Sodium methicillin (SmithKline Beecham) and vancomycin hydrochloride (Lilly Industries) were Laboratory Reference preparation.
IsoSensitest agar (Unipath CM 471) was supplemented with 20 g NaCl/L.
as §3, §4
For orientation: In agar dilution, organisms are placed on agar that contains the substance at set levels.

A further assay concerns MRSA. Description: Methicillin MIC in presence of sub-inhibitory vancomycin (control). The note with it: sub-inhibitory vancomycin in place of tea. Here is the method:
A similar experiment was done using methicillin diluted in a series of sub-inhibitory concentrations of vancomycin, namely 0.5, 0.28, 0.2, 0.1 and 0.07 μg/l.
as §4

Regarding `Oc1cc(O)c2c(c1)O[C@H](c1cc(O)c(O)c(O)c1)[C@H](O)C2` [EGC, Epigallocatechin], the “activity II, pure compounds” value in the assay with S. aureus USA#18 is “no activity II”.
With `O=C(O[C@@H]1Cc2c(O)cc(O)cc2O[C@@H]1c1cc(O)c(O)c(O)c1)c1cc(O)c(O)c(O)c1` [EGCG, epigallocatechin gallate], the “activity II, pure compounds” value in the assay on S. aureus USA#18 is on record as “no activity II”.
For the compound `Oc1cc(O)c2c(c1)O[C@H](c1ccc(O)c(O)c1)[C@H](O)C2` [Epicatechin, epicatechin], the “activity II” value with S. aureus USA#18 was “no evidence of activity I or II”. In addition, the “activity I” value in the assay on S. aureus Oxford is on record as “no evidence of activity I or II”.
For the compound `O=c1c(O)c(-c2ccc(O)c(O)c2)oc2cc(O)cc(O)c12` [Quercitin, quercitin], in the assay with S. aureus USA#18, the “activity II, pure compounds” value was “no activity II”.
In the case of `CC1(C)S[C@@H]2[C@H](NC(=O)Cc3ccccc3)C(=O)N2[C@H]1C(=O)O` [benzylpenicillin], the MIC in the assay on MSSA (Staphylococcus aureus, 48 h, read-out: MIC of benzylpenicillin, alone, MSSA, strain no. is first number of line) was above 512 mg/L. Besides, in the assay on MSSA (strain no. is first number of line), the “MIC of benzylpenicillin, alone” value was 512 mg/L and 256 mg/L.
Take `O=C(/C=C/c1ccc(O)c(O)c1)O[C@@H]1C[C@](O)(C(=O)O)C[C@@H](O)[C@H]1O` [chlorogenic acid]: the “activity II” value in the assay with S. aureus USA#18 is recorded as “no evidence of activity I or II”. In the assay on S. aureus Oxford, the “activity I” value is “no evidence of activity I or II”.
`O=C(O)c1cc(O)c(O)c(O)c1` [gallic acid]: the “activity II” value in the assay on S. aureus USA#18 is “no evidence of activity I or II”. Besides, the “activity I” value in the assay on S. aureus Oxford was “no evidence of activity I or II”.
For the compound `O=c1c(O)c(-c2ccc(O)cc2)oc2cc(O)cc(O)c12` [kaempferol], the “activity II, pure compounds” value in the assay with S. aureus USA#18 is recorded as “no activity II”.
In the case of `COc1cccc(OC)c1C(=O)N[C@@H]1C(=O)N2[C@@H]1SC(C)(C)[C@@H]2C(=O)O` [methicillin], the “MIC of methicillin, alone” value with low level MRSA is 32 mg/L and 64 mg/L; in assay [1] (no tea), 512 mg/L. Besides, the “MIC of methicillin, +T/300” value in assay [1] (tea extract 1/300) is 512 mg/L.
`Cn1cnc2c1c(=O)[nH]c(=O)n2C` [theobromine]: the “activity II” value in the assay with S. aureus USA#18 was “no evidence of activity I or II”. In the assay with S. aureus Oxford, the “activity I” value was “no evidence of activity I or II”.
As to `Cn1c(=O)c2[nH]cnc2n(C)c1=O` [theophylline], the “activity II” value in the assay on S. aureus USA#18 was “no evidence of activity I or II”. Moreover, the “activity I” value in the assay with S. aureus Oxford is reported as “no evidence of activity I or II”.
In the case of `CN[C@H](CC(C)C)C(=O)N[C@H]1C(=O)N[C@@H](CC(N)=O)C(=O)N[C@H]2C(=O)N[C@H]3C(=O)N[C@H](C(=O)N[C@H](C(=O)O)c4cc(O)cc(O)c4-c4cc3ccc4O)[C@H](O)c3ccc(c(Cl)c3)Oc3cc2cc(c3O[C@@H]2O[C@H](CO)[C@@H](O)[C@H](O)[C@H]2O[C@H]2C[C@](C)(N)[C@H](O)[C@H](C)O2)Oc2ccc(cc2Cl)[C@H]1O` [vancomycin], in the assay with MRSA, the “effect of vancomycin on methicillin MIC / synergy” value is reported as “no synergistic effect whatever; also recorded: no reduction in methicillin MIC”.
